Assays:
p53 [1] = biological target: T1, p53 (Homo sapiens, UniProt P04637); experiment: PVDF membrane-binding assay with purified p53; p53 immunoprecipitation with LC-MS/MS of bound ceramide; parameters: gene TP53; purified recombinant p53; endogenous p53 pulled down from A549 cells
p53 [2] = biological target: T1, p53; experiment: UV photo-crosslinking, MALDI-TOF MS and LC-MS/MS site mapping; thermal shift (Tm […] to […] °C); type: binding; parameters: gene TP53; DBD, residues 100–300
p53 [3] = biological target: T2, p53 (Homo sapiens, UniProt P04637, S241A); experiment: binding test of p53 mutant (Supplementary Figure […]), qualitative
T2 construct: gene TP53; full-length

p53 [4] = biological target: T3, p53 (Homo sapiens, UniProt P04637, R175H); experiment: binding test of p53 mutant (Supplementary Figure 4a), qualitative
T3 construct: gene TP53

p53 [5] = biological target: T4, p53 (Homo sapiens, UniProt P04637, S240E); experiment: binding test of p53 mutant (Supplementary Figure […]), qualitative
T4 construct: gene TP53; full-length

p53 [6] = biological target: T1, p53; experiment: intrinsic tyrosine fluorescence quenching titration of purified p53 DBD; PVDF membrane-binding assay; parameters: gene TP53

CCCCCCCCCCCCC/C=C/[C@@H](O)[C@H](CO)NC(=O)CCCCCCCCCCCCCCC [C16-ceramide, N-(hexadecanoyl)-sphing-4-enine]
PVDF membrane-binding assay with purified p53; p53 immunoprecipitation with LC-M (p53 [1]): these experiments demonstrated the strong preference of p53 for C16-ceramide

C#CCCCC1(CCCCCCCCC(=O)N[C@@H](CO)[C@H](O)/C=C/CCCCCCCCCCCCC)N=N1 [PAC, N-(9-(3-pent-4-ynyl-3-H-diazirin-3-yl)-nonanoyl)-D-erythro-sphingosine]
UV photo-crosslinking, MALDI-TOF MS and LC-MS/MS site mapping; thermal shift (Tm) (p53 [2]): LC-MS/MS data revealed two ceramide-modified residues, Ser240 and Ser241 (Fig. 3b), in the PAC-modified sample only

CCCCCCCCCCCCC/C=C/[C@@H](O)[C@H](CO)NC(=O)CCCCCCCCCCCCCCC[n+]1ccccc1 [PC16, D-erythro-2-N-[16′-(1′′-pyridinium)-hexadecanoyl]-sphingosine bromide]
binding test of p53 mutant (Supplementary Figure 4), qualitative (p53 [3]): substitutions with aa having shorter side chains (S241A or S240E) did not affect the binding | binding test of p53 mutant (Supplementary Figure 4a), qualitative (p53 [4]): R175H, did not affect the binding of PC16 to p53 (Supplementary Figure 4a) | binding test of p53 mutant (Supplementary Figure 4), qualitative (p53 [5]): substitutions with aa having shorter side chains (S241A or S240E) did not affect the binding | Kd (p53 [6]): ~60 nM

From publication PMC6175828, “C16-ceramide is a natural regulatory ligand of p53 in cellular stress response” (Nature Communications, 2018)
